Data taken from patent US20260028340A1 (Supernus Pharmaceuticals, Inc., priority 2023, published 2026).

Assay: Pharmacokinetic data in CD-1 mice after oral administration
Type: in vivo
Details: 10 mg/kg molar equivalent to Cmpd. A (nominal), serum, analyte: A
Description: Pharmacokinetic (PK) data was generated using twelve CD-1 mice treated with oral administration of the compound with a dose volume of 10 mg/kg (a molar equivalent to 5-(4-chlorophenyl)-2,3-dihydroimidazo[1,2-b]isoindol-5-ol (“Compound A,” “Cmpd. A,” or “A”)), and a nominal strength of 1 mg/mL. The serum was analyzed in triplicate with 200 mM K2EDTA anticoagulant.

Structure (SMILES)	PK parameters / level of analyte A (Cmpd. A) after dosing the derivative
CC(C)(C(=O)N1CCN=C1c1ccccc1C(=O)c1ccc(Cl)cc1)C(=O)N1CCN=C1c1ccccc1C(=O)c1ccc(Cl)cc1 [III-1, 1,3-bis(2-(2-(4-chlorobenzoyl)phenyl)-4,5-dihydro-1H-imidazol-1-yl)-2,2-dimethylpropane-1,3-dione]	NC (BLQ at all the time points)
O=C(c1ccc(Cl)cc1)c1ccccc1C1=NCCN1C(=O)c1ccc2c(c1)OCO2 [II-4, benzo[d][1.3]dioxol-5-yl(2-(2-(4-chlorobenzoyl)phenyl)-4,5-dihydro-1H-imidazol-1-yl) methanone]	NC (BLQ at all the time points)
CC(C)C(NC(=O)OC(C)(C)C)C(=O)N1CCN=C1c1ccccc1C(=O)c1ccc(Cl)cc1 (stereo not drawn)	NC (BLQ at all the time points)

Same assay, conditions: mouse, 10 mg/kg molar equivalent to Cmpd. A (nominal), serum, analyte: dosed derivative (DV)

Structure (SMILES)	AUC(0-t) [ng·h/mL]	Cmax [ng/mL]	Tmax [min]	AUC(0-inf) [ng·h/mL]	half-life [min]
CC(C)=CCC/C(C)=C/CC/C(C)=C/COC1(c2ccc(Cl)cc2)c2ccccc2C2=NCCN21 (stereo not drawn) [Compound I-13, 5-(4-chlorophenyl)-5-(((2E,6E)-3,7,11-trimethyldodeca-2,6,10-trien-1-yl)oxy)-2,5-dihydro-3H-imidazo[2,1-a]isoindole]	337	201	30		
Cc1ccc(C(=O)N2CCN=C2c2ccccc2C(=O)c2ccc(Cl)cc2)cc1 [II-3, (2-(2-(4-chlorobenzoyl)phenyl)-4,5-dihydro-1H-imidazol-1-yl) (p-tolyl) methanone]	163	81.6	15	182	132
Clc1ccc(C2(OCc3ccccc3)c3ccccc3C3=NCCN32)cc1 (stereo not drawn) [Compound I-1, 5-(benzyloxy)-5-(4-chlorophenyl)-2,5-dihydro-3H-imidazo[2,1-a]isoindole]	137	68.2	15	141	96
CC(C)(C(=O)N1CCN=C1c1ccccc1C(=O)c1ccc(Cl)cc1)C(=O)N1CCN=C1c1ccccc1C(=O)c1ccc(Cl)cc1 [III-1, 1,3-bis(2-(2-(4-chlorobenzoyl)phenyl)-4,5-dihydro-1H-imidazol-1-yl)-2,2-dimethylpropane-1,3-dione]	366	238	15	369	72
C=CCOC1(c2ccc(Cl)cc2)c2ccccc2C2=NCCN21 (stereo not drawn) [Compound I-3, 5-(allyloxy)-5-(4-chlorophenyl)-2,5-dihydro-3H-imidazo[2,1-a]isoindole]	73.7	52.9	30	88.9	102
CCOC1(c2ccc(Cl)cc2)c2ccccc2C2=NCCN21 (stereo not drawn) [Compound I-8, 5-(4-chlorophenyl)-5-ethoxy-2,5-dihydro-3H-imidazo[2,1-a]isoindole]	48.5	32	30	72.4	127
COCCOCCOCCOC1(c2ccc(Cl)cc2)c2ccccc2C2=NCCN21 (stereo not drawn) [Compound I-12, 5-(4-chlorophenyl)-5-(2-(2-(2-methoxyethoxy)ethoxy)ethoxy)-2,5-dihydro-3H-imidazo[2,1-a]isoindole]	68.9	67.6	30		
O=C(c1ccc(Cl)cc1)c1ccccc1C1=NCCN1C(=O)c1ccccc1 [II-1, (2-(1-benzoyl-4,5-dihydro-1H-imidazol-2-yl)phenyl) (4-chlorophenyl) methanone]	19.8	43	15	21.8	100
CC(C)=CCC/C(C)=C/COC1(c2ccc(Cl)cc2)c2ccccc2C2=NCCN21 (stereo not drawn) [Compound I-11, (E)-5-(4-chlorophenyl)-5-((3,7-dimethylocta-2,6-dien-1-yl)oxy)-2,5-dihydro-3H-imidazo[2,1-a]isoindole]	39.7	27.7	15	44	69.6
COc1ccc(COC2(c3ccc(Cl)cc3)c3ccccc3C3=NCCN32)cc1 (stereo not drawn) [Compound I-2, 5-(4-chlorophenyl)-5-((4-methoxybenzyl)oxy)-2,5-dihydro-3H-imidazo[2,1-a]isoindole]	260	234	15	268	108
CC(C)=CCOC1(c2ccc(Cl)cc2)c2ccccc2C2=NCCN21 (stereo not drawn) [Compound I-9, 5-(4-chlorophenyl)-5-((3-methylbut-2-en-1-yl)oxy)-2,5-dihydro-3H-imidazo[2,1-a]isoindole]	55.1	124	15	59.8	85.2
CN1CCN(C(=O)N2CCN=C2c2ccccc2C(=O)c2ccc(Cl)cc2)CC1 [II-6, (2-(2-(4-chlorobenzoyl)phenyl)-4,5-dihydro-1H-imidazol-1-yl) (4-methylpiperazin-1-yl) methanone]	531	752	15	548	51
CC(C)COC1(c2ccc(Cl)cc2)c2ccccc2C2=NCCN21 (stereo not drawn) [Compound I-10, 5-(4-chlorophenyl)-5-isobutoxy-2,5-dihydro-3H-imidazo[2,1-a]isoindole]	94.6	82.5	15	112	97.8
COc1ccc(C(=O)N2CCN=C2c2ccccc2C(=O)c2ccc(Cl)cc2)cc1 [II-2, (2-(2-(4-chlorobenzoyl)phenyl)-4,5-dihydro-1H-imidazol-1-yl) (4-methoxyphenyl) methanone]	611	170	30	624	81.6
O=C(c1ccc(Cl)cc1)c1ccccc1C1=NCCN1C(=O)c1ccc2c(c1)OCO2 [II-4, benzo[d][1.3]dioxol-5-yl(2-(2-(4-chlorobenzoyl)phenyl)-4,5-dihydro-1H-imidazol-1-yl) methanone]	236	50.3	15	238	72
COC1(c2ccc(Cl)cc2)c2ccccc2C2=NCCN21 (stereo not drawn) [Compound I-6, 5-(4-chlorophenyl)-5-methoxy-2,5-dihydro-3H-imidazo[2,1-a]isoindole]	64.7	72	30	66.6	51
CC(C)C(NC(=O)OC(C)(C)C)C(=O)N1CCN=C1c1ccccc1C(=O)c1ccc(Cl)cc1 (stereo not drawn)	56.5	61.2	15		
Clc1ccc(C2(OCc3ccc4c(c3)OCO4)c3ccccc3C3=NCCN32)cc1 (stereo not drawn) [Compound I-7, 5-(benzo[d][1.3]dioxol-5-ylmethoxy)-5-(4-chlorophenyl)-2,5-dihydro-3H-imidazo[2,1-a]isoindole]	307	211	15	358	85.2
COCCOC1(c2ccc(Cl)cc2)c2ccccc2C2=NCCN21 (stereo not drawn) [Compound I-4, 5-(4-chlorophenyl)-5-(2-methoxyethoxy)-2,5-dihydro-3H-imidazo[2,1-a]isoindole]	568	475	15	586	108

Assay: as above
Type: in vivo
Details: mouse, serum, Table 7: CD-1 mice, nominal dose 5.10 mg/kg Cmpd. A or 6.57-8.40 mg/kg DV salt, analyte: dosed derivative (DV)

Structure (SMILES)	AUC(0-inf) [ng·h/mL]	AUC(0-t) [ng·h/mL]	Cmax [ng/mL]	Tmax [min]	half-life [min]
FC(F)(F)c1ccc(/C=C/COC2(c3ccc(Cl)cc3)c3ccccc3C3=NCCN32)cc1 (stereo not drawn) [Compound I-18, (E)-5-(4-chlorophenyl)-5-((3-(4-(trifluoromethyl)phenyl)allyl)oxy)-2,5-dihydro-3H-imidazo[2,1-a]isoindole]	792	677	187	30	237
CC(C)/C=C/COC1(c2ccc(Cl)cc2)c2ccccc2C2=NCCN21 (stereo not drawn) [Compound I-17, (E)-5-(4-chlorophenyl)-5-((4-methylpent-2-en-1-yl)oxy)-2,5-dihydro-3H-imidazo[2,1-a]isoindole]	33.2	27.6	25.7	15	78
FC(F)(F)c1ccc(COC2(c3ccc(Cl)cc3)c3ccccc3C3=NCCN32)cc1 (stereo not drawn) [Compound I-14, 5-(4-chlorophenyl)-5-((4-(trifluoromethyl)benzyl)oxy)-2,5-dihydro-3H-imidazo[2,1-a]isoindole]	215	183	56.1	30	163
Clc1ccc(C2(OCC3OCCO3)c3ccccc3C3=NCCN32)cc1 (stereo not drawn) [Compound I-19, 5-((1,3-dioxolan-2-yl)methoxy)-5-(4-chlorophenyl)-2,5-dihydro-3H-imidazo[2,1-a]isoindole]		2.04	4.27	20	
COc1ccc(COC2(c3ccc(Cl)cc3)c3ccccc3C3=NCCN32)cc1OC (stereo not drawn) [Compound I-15, 5-(4-chlorophenyl)-5-((3,4-dimethoxybenzyl)oxy)-2,5-dihydro-3H-imidazo[2,1-a]isoindole]	16	12.7	17.8	20	29.8
Clc1ccc(COC2(c3ccc(Cl)cc3)c3ccccc3C3=NCCN32)cc1 (stereo not drawn) [Compound I-16, 5-((4-chlorobenzyl)oxy)-5-(4-chlorophenyl)-2,5-dihydro-3H-imidazo[2,1-a]isoindole]	224	174	53.3	35	194
